ChEMBL document CHEMBL1154345, “Discovery of tricyclic 5,6-dihydro-1H-pyridin-2-ones as novel, potent, and orally bioavailable inhibitors of HCV NS5B polymerase” (Bioorg Med Chem Lett, 2009)

Assays:
Hepatitis C virus [1] = experiment: microbe, parasite or virus in culture; type: functional, organism-based, Hepacivirus hominis, subtype 1a, Huh-lunet
Description: Antiviral activity against HCV-1a infected in human Huh-lunet cells after 4 days by luciferase based replicon assay

in vitro [2] = settings: rhesus monkey
Description: Metabolic stability in monkey liver microsomes assessed as half life at 5 uM

Cynomolgus monkey [3] = settings: in vivo, iv, 1 mg/kg
Cynomolgus monkey [4] = settings: in vivo, po, 1 mg/kg
[5] = (§1) Oral bioavailability in cynomolgus monkey at 1 mg/kg; type: ADME, organism-based, Macaca fascicularis; settings: in vivo
[6] = Clearance in cynomolgus monkey at 1 mg/kg, iv; type: ADME, organism-based, Macaca fascicularis; parameters: dose 1 mg/kg, route intravenous; settings: in vivo
Hepatitis C virus [7] = experiment: microbe, parasite or virus in culture; type: functional, organism-based, Hepacivirus hominis, genotype 1b, Huh-luc/neo-ET
Description: Antiviral activity against HCV-1b infected human Huh-luc/neo-ET replicon cells after 72 hrs by luciferase based replicon assay

in vitro [8] = settings: human
Description: Metabolic stability in human liver microsomes assessed as compound remaining after 60 mins at 1 uM

in vitro [9] = settings: human, t1/2
[10] = Cytotoxicity against human HuH7 cells assessed as GAPDH release; type: cell-based, Huh-7
in vitro [11] = settings: rhesus monkey, Stability
Description: Metabolic stability in monkey liver microsomes assessed as compound remaining after 60 mins at 5 uM

physchem = settings: aqueous medium, pH 7.5
Description: Aqueous solubility at pH 7.5

in vitro [12] = settings: human, Caco-2
Description: Apparent permeability from apical side to basolateral side of human Caco-2 cells at 10 uM after 3 hrs

Cynomolgus monkey [13] = experiment: as §1; type: ADME, organism-based, Macaca fascicularis; settings: in vivo
[14] = Hepatitis C virus, subtype 1a, Huh-lunet, 96 h
[15] = Hepatitis C virus, genotype 1b, Huh-luc/neo-ET, 72 h

| Structure (SMILES) | EC50 (Hepatitis C virus [1]; [14]) [µM] | EC50 (Hepatitis C virus [7]; [15]) [µM] | remaining at 1 h, 1 µM (in vitro [8]; liver microsomes) [%] | half-life at 1 µM (in vitro [9]; liver microsomes) [h] | remaining at 1 h, 1 µM (in vitro [8]; microsomes) [%] | half-life at 1 µM (in vitro [9]; microsomes) [h] | further results |
| --- | --- | --- | --- | --- | --- | --- | --- |
| Cc1cc(CN2C(=O)C(C3=NS(=O)(=O)c4cc(NS(C)(=O)=O)ccc4N3)=C(O)[C@@H]3[C@H]4CC[C@H](C4)[C@@H]32)ccc1F | 0.034 | 0.006 | 70 | > 1 |  |  | half-life at 5 µM (in vitro [2]; liver microsomes): 0.817 h; AUC (Cynomolgus monkey [3]): 25 µg·h/mL; AUC (Cynomolgus monkey [4]): 8.78 µg·h/mL; bioavailability [5]: 35%; clearance [6]: 0.0402 L/h/kg |
| CS(=O)(=O)Nc1ccc2c(c1)S(=O)(=O)N=C(C1=C(O)[C@@H]3[C@H]4CC[C@H](C4)[C@@H]3N(Cc3ccc(F)cc3)C1=O)N2 [SETROBUVIR] | 0.018 | 0.003 |  |  | 75 | > 1 | half-life at 5 µM (in vitro [2]; microsomes): > 1 h; CC50 [10]: > 100 µM; AUC (Cynomolgus monkey [3]): 94.9 µg·h/mL; AUC (Cynomolgus monkey [4]): 49.4 µg·h/mL; bioavailability [5]: 52%; remaining at 1 h, 5 µM (in vitro [11]; microsomes): 98%; clearance [6]: 0.0108 L/h/kg |
| CS(=O)(=O)Nc1ccc2c(c1)S(=O)(=O)N=C(C1=C(O)[C@@H]3C4CCC(CC4)[C@@H]3N(Cc3ccccc3)C1=O)N2 | 0.055 | 0.001 | 82 | > 1 |  |  |  |
| CS(=O)(=O)Nc1ccc2c(c1)S(=O)(=O)N=C(C1=C(O)[C@@H]3[C@H]4CC[C@H](C4)[C@@H]3N(Cc3cccc(F)c3)C1=O)N2 | 0.33 | 0.01 |  |  | 85 | > 1 |  |
| CS(=O)(=O)Nc1ccc2c(c1)S(=O)(=O)N=C(C1=C(O)[C@@H]3[C@@H]4CC[C@@H](C4)[C@@H]3N(Cc3ccc(F)c(Cl)c3)C1=O)N2 | 0.2 | 0.004 | 100 | > 1 |  |  |  |
| CS(=O)(=O)Nc1ccc2c(c1)S(=O)(=O)NC(C1=C(O)[C@@H]3CCC[C@@H]3N(Cc3ccc(F)cc3)C1=O)=N2 | 0.55 | 0.023 |  |  | 85 | > 1 | half-life at 5 µM (in vitro [2]; microsomes): > 1 h; CC50 [10]: > 100 µM; remaining at 1 h, 5 µM (in vitro [11]; microsomes): 100%; solubility (physchem): > 100 µM |
| CS(=O)(=O)Nc1ccc2c(c1)S(=O)(=O)N=C(C1=C(O)[C@@H]3[C@@H]4CC[C@@H](C4)[C@@H]3N(Cc3cccs3)C1=O)N2 | 0.82 | 0.027 |  |  | 63 | > 1 |  |
| CS(=O)(=O)Nc1ccc2c(c1)S(=O)(=O)N=C(C1=C(O)[C@@H]3C4CCC(CC4)[C@@H]3N(Cc3ccc(F)cc3)C1=O)N2 | 0.006 | 0.0008 |  |  | 86 | > 1 | CC50 [10]: > 1 µM |
| CS(=O)(=O)Nc1ccc2c(c1)S(=O)(=O)N=C(C1=C(O)[C@@H]3[C@H]4CC[C@H](C4)[C@@H]3N(Cc3ccc(F)c(F)c3F)C1=O)N2 | 0.26 | 0.015 | 100 | > 1 |  |  |  |
| CS(=O)(=O)Nc1ccc2c(c1)S(=O)(=O)N=C(C1=C(O)[C@@H]3C4CCC(CC4)[C@@H]3N(Cc3cccc(F)c3)C1=O)N2 | 0.098 | 0.004 |  |  | 88 | > 1 |  |
| CS(=O)(=O)Nc1ccc2c(c1)S(=O)(=O)NC(C1=C(O)[C@@H]3[C@@H]4CC[C@@H](C4)[C@@H]3N(Cc3ccccc3)C1=O)=N2 | 0.34 | 0.01 | 90 | > 1 |  |  |  |
| CS(=O)(=O)Nc1ccc2c(c1)S(=O)(=O)N=C(C1=C(O)[C@@H]3[C@@H]([C@H]4CC[C@@H]3O4)N(Cc3ccc(F)cc3)C1=O)N2 | 0.066 | 0.006 | 100 | > 1 |  |  | half-life at 5 µM (in vitro [2]; liver microsomes): > 1 h; CC50 [10]: > 1 µM; AUC (Cynomolgus monkey [3]): 2.65 µg·h/mL; AUC (Cynomolgus monkey [4]): 0.09 µg·h/mL; bioavailability [5]: 3%; remaining at 1 h, 5 µM (in vitro [11]; liver microsomes): 100%; clearance [6]: 0.378 L/h/kg; Papp A→B at 3 h, 10 µM (in vitro [12]): 0.8 nm/s; solubility (physchem): > 100 µM |
| CS(=O)(=O)Nc1ccc2c(c1)S(=O)(=O)N=C(C1=C(O)C3CC=CCC3N(Cc3ccc(F)cc3)C1=O)N2 (racemic) | 0.081 | 0.007 | 87 | > 1 |  |  | CC50 [10]: > 1 µM |
| Cc1cc(CN2C(=O)C(C3=Nc4ccc(NS(C)(=O)=O)cc4S(=O)(=O)N3)=C(O)[C@@H]3[C@@H]4CC[C@@H](C4)[C@@H]32)ccc1F | 0.087 | 0.009 | 65 | > 1 |  |  |  |
| CS(=O)(=O)Nc1ccc2c(c1)S(=O)(=O)NC(C1=C(O)[C@@H]3[C@@H]4CC[C@@H](C4)[C@@H]3N(Cc3cccc(F)c3)C1=O)=N2 | 0.29 | 0.022 |  |  | 96 | > 1 |  |
| CS(=O)(=O)Nc1ccc2c(c1)S(=O)(=O)N=C(C1=C(O)[C@@H]3[C@@H]4CC[C@@H](C4)[C@@H]3N(Cc3ccc(F)cc3)C1=O)N2 | 0.065 | 0.007 |  |  | 85 | > 1 | CC50 [10]: > 1 µM |
| CS(=O)(=O)Nc1ccc2c(c1)S(=O)(=O)N=C(C1=C(O)[C@@H]3C4CCC(CC4)[C@@H]3N(Cc3ccc(F)c(F)c3F)C1=O)N2 | 0.15 | 0.008 | 100 | > 1 |  |  |  |
| CS(=O)(=O)Nc1ccc2c(c1)S(=O)(=O)N=C(C1=C(O)[C@@H]3C4CCC(CC4)[C@@H]3N(Cc3ccc(Cl)cc3)C1=O)N2 | 0.25 | 0.031 | 100 | > 1 |  |  |  |
| CS(=O)(=O)Nc1ccc2c(c1)S(=O)(=O)N=C(C1=C(O)[C@@H]3C4CCC(CC4)[C@@H]3N(Cc3ccc(F)cc3F)C1=O)N2 | 0.28 | 0.002 | 100 | > 1 |  |  |  |
| COc1cc(CN2C(=O)C(C3=NS(=O)(=O)c4cc(NS(C)(=O)=O)ccc4N3)=C(O)[C@@H]3C4CCC(CC4)[C@@H]32)ccc1F | 0.021 | 0.002 | 67 | > 1 |  |  |  |
| COc1cc(CN2C(=O)C(C3=NS(=O)(=O)c4cc(NS(C)(=O)=O)ccc4N3)=C(O)[C@@H]3[C@H]4CC[C@H](C4)[C@@H]32)ccc1F | 0.046 | 0.01 |  |  | 66 | > 1 |  |
| CS(=O)(=O)Nc1ccc2c(c1)S(=O)(=O)N=C(C1=C(O)C3C4CCC(C4)C3N(Cc3ccc(F)cc3)C1=O)N2 (racemic; 2a) |  |  |  |  |  | 0.567 | EC50 (Hepatitis C virus [1]; huh-lunet): 0.33 µM; half-life at 5 µM (in vitro [2]; microsomes): > 1 h; CC50 [10]: > 1 µM; AUC (Cynomolgus monkey [3]): 63.9 µg·h/mL; AUC (Cynomolgus monkey [4]): 30.7 µg·h/mL; F (Cynomolgus monkey [13]): 48%; remaining at 1 h, 5 µM (in vitro [11]; microsomes): 91%; EC50 (Hepatitis C virus [7]; huh-luc/neo-et): 0.005 µM |
| CS(=O)(=O)Nc1ccc2c(c1)S(=O)(=O)N=C(C1=C(O)[C@@H]3C4CCC(CC4)[C@@H]3N(Cc3ccc(F)c(F)c3)C1=O)N2 | 0.023 | 0.002 | 81 | > 1 |  |  |  |
| Cc1cc(CN2C(=O)C(C3=NS(=O)(=O)c4cc(NS(C)(=O)=O)ccc4N3)=C(O)[C@@H]3C4CCC(CC4)[C@@H]32)ccc1F | 0.016 | 0.002 | 81 | > 1 |  |  |  |
| CS(=O)(=O)Nc1ccc2c(c1)S(=O)(=O)N=C(C1=C(O)[C@@H]3[C@H]4CC[C@H](C4)[C@@H]3N(Cc3cccs3)C1=O)N2 | 0.066 | 0.018 |  |  | 81 | > 1 |  |
